According to patent US8835507B2, “Adamantane derivatives possessing anti-viral and anti-microbial activity” (priority 2012, dated 2014):
Values after ≈ are worked out from the molar mass of the structure shown. Like-named read-outs stand apart in the source and are kept apart here.

Key:
[1] = system: Vaccinia virus, WR strain; settings: for activity against vaccinia virus (in words): summary of Table 1; for TC50: toxic concentration in the Vaccinia virus screen
[2] = system: Tacaribe virus
[3] = system: Vaccinia virus, WR strain; assay: microbe, parasite or virus in culture; settings: Orthopoxvirus vaccinia
[4] = system: Pichinde virus
[5] = system: B. mallei (ATCC 23344); assay: microbe, parasite or virus in culture; format: cell-based; settings: Burkholderia mallei, ATCC23344
[6] = system: E. coli (ATCC 25922); assay: Test C: MIC against E. coli (ATCC 25922); format: cell-based
[7] = system: F. tularensis (SCHU4); assay: microbe, parasite or virus in culture; format: cell-based; settings: Francisella tularensis
[8] = system: S. aureus (ATCC 29213); assay: Test C: MIC against S. aureus (ATCC 29213); format: cell-based; settings: Staphylococcus aureus, ATCC29213, CAMHB + IV
[9] = system: B. anthracis (Ames); assay: microbe, parasite or virus in culture; format: cell-based; settings: Bacillus anthracis
[10] = system: P. aeruginosa (ATCC 27853); assay: Test C: MIC against P. aeruginosa (ATCC 27853); format: cell-based; settings: Pseudomonas aeruginosa, ATCC27853, P. aeruginosa (ATCC 27853)
[11] = system: anthrax; assay: organism not typed; format: cell-based
[12] = system: plague; assay: organism not typed; format: cell-based
[13] = system: E. coli; assay: microbe, parasite or virus in culture; format: cell-based; settings: Escherichia coli
[14] = system: B. pseudomallei (ATCC 23342); assay: microbe, parasite or virus in culture; format: cell-based; settings: Burkholderia pseudomallei, ATCC23342
[15] = system: Y. pestis (CO92); assay: microbe, parasite or virus in culture; format: cell-based; settings: Yersinia pestis

Row | Compound | Comments (activity rating) ([1]; Vaccinia virus, WR strain) | activity against vaccinia virus (in words) [1] | TC50 [1] [µg/mL] | IC50 [2] [µg/mL] | IC50 [3] [µg/mL] | IC50 [4] [µg/mL] | MIC [5] [µg/mL] | MIC ([6]; CAMHB + IV) | MIC ([6]; Escherichia coli, ATCC25922, CAMHB, read-out: MIC) [µg/mL] | MIC [7] [µg/mL] | MIC [8] [µg/mL] | MIC [9] [µg/mL] | MIC ([10]; CAMHB) [µg/mL] | MIC ([10]; CAMHB + IV) [µg/mL] | MIC [11] [µg/mL] | MIC [12] [µg/mL] | MIC [13] [µg/mL] | MIC [14] [µg/mL] | MIC [15] [µg/mL] | IC50 ([1]; Vaccinia virus, WR strain) [µg/mL]
1 | ClN(CCN(Cl)C12CC3CC(CC(C3)C1)C2)C12CC3CC(CC(C3)C1)C2 [Compound 7] | Moderate | moderate to high activity | 63.40 (≈ 160 µM) | 17 (≈ 42.8 µM) | 6.37 (≈ 16 µM) | 3.4 (≈ 8.55 µM) |  |  |  |  |  |  |  |  |  |  |  |  |  | 
2 | C(CNC12CC3CC(CC(C3)C1)C2)NC12CC3CC(CC(C3)C1)C2 [Compound 6] | Active | moderate to high activity | 5.58 (≈ 17 µM) | 6 (≈ 18.3 µM) | 0.32 (≈ 0.974 µM) | 11 (≈ 33.5 µM) | 2 (≈ 6.09 µM) | ≦0.06 ug/ml | ≤ 0.06 | ≤ 0.06 | 1 | 0.25 (≈ 0.761 µM) | 2 (≈ 6.09 µM) | 4 | 1 to 4 (≈ 3.04 to 12.2 µM) | 4 (≈ 12.2 µM) | 4 to 8 (≈ 12.2 to 24.3 µM) | 2 (≈ 6.09 µM) | ≤ 0.06 | 
3 | Nc1ccn(C[C@@H](CO)OCP(=O)(O)O)c(=O)n1 [Cidofir, reference compound] | Inactive |  | >100 |  |  |  |  |  |  |  |  |  |  |  |  |  |  |  |  | 
4 | NC(=O)c1ncn([C@@H]2O[C@H](CO)[C@@H](O)[C@H]2O)n1 [Ribivirin, reference compound] | Moderate |  | >100 |  |  |  |  |  |  |  |  |  |  |  |  |  |  |  |  | 27.90 (≈ 114 µM)
